From patent US7247734B2 (Vernalis (Cambridge) Limited, priority 2001, dated 2007)
Read-outs that look alike come from different tables or passages of the source. Blank lines part the entries; values can stand above or below the compound they belong to.

Assays:
[1] = target: T1, yeast HSP90 (Saccharomyces cerevisiae, UniProt P02829); assay: Malachite green HSP90 ATPase assay; type: biochemical
T1 construct: made in house; host or cells: E. coli
Excerpt: Two methods have been developed to measure the intrinsic ATPase activity of HSP90, using yeast HSP90 as a model system. The first method utilises a regenerating coupled enzyme assay. The second assay, based on the use of malachite green for the measurement of inorganic phosphate, was designed for high throughput screening (HTS) to identify novel HSP90 inhibitor drug candidates.
Colorimetric assays for the determination of phosphate, based on the formation of a phosphomolybdate complex, can be carried out in a few steps with inexpensive reagents and are well suited to the automation required for high throughput screening (see, e.g., Cogan et al., 1999). Enzymes that release inorganic phosphate are assayed using the reaction of the cationic dye, malachite green, with the a complex formed by a reaction of the inorganic phosphate with molybdate to generate a blue-green colour with an absorbance maximum at 610 nm (see, e.g., Baykov et al., 1988; Harder et al., 1994; Maehama et al., 2000). The method has been used in both high throughput (see, e.g., Rumsfeld et al., 2000) and ultra-high throughput screening formats (see, e.g., Layery et al., 2001) for a variety of non-HSP90 ATPases. However, this method is complicated by the non-enzymatic hydrolysis of ATP in the presence of acidic malachite green reagent, causing an increase in colour (see, e.g., Chan et al., 1986; Henkel et al., 1988). This process is mediated by molybdate and can be overcome by the addition of sodium citrate immediately after the reagent (see, e.g., Lanzetta et al., 1979; Schirmer et al., 1998; Baginski et al., 1975). This modification has been adapted to the 96-well microtitre plate assay previously described for other ATPases (see, e.g., Lanzetta et al., 1979) to produce the following protocol for HSP90 ATPase, which is suitable for high throughput screening.
Chemicals are of the highest purity commercially available and all aqueous solutions are made up in AR water. Because of the need to minimise contamination with inorganic phosphate, precautions should be taken with solutions and apparatus used in the assays. Glassware and pH meters are rinsed with double distilled or deionised water before use and, wherever possible, plastic ware should be used. Gloves are worn for all procedures. • (1) Immulon 96-well (Thermo Labsystems, Basingstoke, UK) or Cliniplate 384-well flat-bottomed polystyrene multiwell plates (Thermo Labsystems). • (2) Assay buffer of (a) 100 mM Tris-HCl, pH 7.4, (b) 20 mM KCl, (c) 6 mM MgCl2. Stored at 4° C. • (3) 0.0812% (w/v) malachite green (M 9636, Sigma Aldrich Ltd., Poole, UK). Stored at room temperature. • (4) 2.32% (w/v) polyvinyl alcohol USP (P 1097, Sigma Aldrich Ltd, Poole, UK) in boiling water (see Comment 1), allowed to cool, and stored at room temperature. • (5) 5.72% (w/v) ammonium molybdate in 6 M hydrochloric acid. Stored at room temperature. • (6) 34% (w/v) sodium citrate. Stored at room temperature. • (7) ATP, disodium salt, special quality (519979, Boehringer Mannheim, Lewes, UK). Stored at 4° C. • (8) E. coli expressed yeast HSP90 protein, purified >95% (see, e.g., Panaretou et al., 1998) and stored at −80° C. as 10 μl aliquots containing 0.5 mg of protein. Method
The following protocol was used: • (1) On the day of use, prepare the malachite green reagent from the stock solutions. Mix (a) 2 parts of malachite green, (b) 1 part of polyvinyl alcohol, (c) 1 part of ammonium molybdate, and (d) 2 parts of water. Initially, the reagent is a dark brown colour, but after standing at room temperature for about 2 h, this becomes a golden yellow colour and is ready for use. • (2) For the high throughput screening assays, the test compounds are dissolved at 200 μM in 2.0% DMSO and contained in daughter plates derived from the chemical libraries. Transfer 5 μl of each sample from the daughter plate to each well of the assay plate using automated equipment (see Comment 3). This represents a final concentration in the well of 40 μM.

[2] = test system: HCT116 human colon tumour cells; assay: 96 h growth inhibition assay (SRB), HCT116; type: cell-based; details: Homo sapiens, HCT-116; HCT116, 96 h
Procedure: (§1) The growth inhibition assay employed was based on that described previously (Kelland et al., 1993). HCT116 and HT29 human colon tumour cells (American Tissue Culture Collection) were seeded into 96-well tissue culture plates (approximately 1600–2000 cells per well) and allowed to attach for 36 hours. Eight wells were treated with a single concentration from a range of compound concentrations and incubated for 96 hours. Cells were fixed using ice cold 10% trichloroacetic acid (TCA). Plates were then washed five times with water, air dried, and stained with 0.4% sulphorhodamine B (SRB) in 1% acetic acid for 10 minutes. The SRB stain was solubilised in 10 mM Tris-HCl and the absorbance measured at 540 nm using a Titertek Multiscan MCC/340 MKII plate reader (Flow Laboratories, IEC, Basingstoke, N.H.). The absorbance values correspond to total protein content and are used as a measure of cell growth.

[3] = test system: HT29 human colon tumour cells; assay: 96 h growth inhibition assay (SRB), HT29; type: cell-based; details: Homo sapiens, HT-29; HT29, 96 h
Procedure: as §1

[4] = test system: HSP70 in HCT116 cells; assay: Cell-based ELISA for HSP70 expression; set-up: species or system human; details: HCT116, 1 μM compound
Excerpt: Cell-based ELISA methods (see, e.g., Stockwell et al., 1999; Versteeg et al., 2000) offer several advantages for evaluating the pharmacodynamic effects of novel mechanism-based inhibitors and may be the method of choice for comparing inhibitors that are identified during the iterative process of lead identification and optimisation. The technique can be used to rapidly rank the effectiveness of compounds as well as to investigate the molecular mechanisms of their action. The increased sample throughput possible with ELISA means that compounds can be simultaneously studied in multiple replicates at different doses and exposure times. […] The assays are carried out directly on cells grown and treated in microtitre plates, thereby removing the necessity for preparing cell lysates. ELISA techniques can in theory be applied to any cellular protein or post-translational modification for which an antibody is available and results are at least semi-quantitative.
Chemicals are of the highest purity commercially available. • (1) Human colon tumour cell lines (e.g., HCT116 and HT29 from American Tissue Culture Collection, ATCC) grown in Dulbecco's modified Eagle's medium (DMEM) (CSSD, Institute of Cancer Research, London, UK) supplemented with […] glucose, 10% foetal bovine serum (FBS), 200 mM L-glutamine, and 5 ml non-essential amino acids in a humidified atmosphere of 5% CO2 at 37° C. • (2) 96 well Falcon clear microtitre tissue culture plates (BD Labware, Hospital Management and Supplies, Ltd., Northampton, UK). • (3) DMSO diluted in dH2O (8%). • (4) HSP90 inhibitors at required concentration dissolved in DMSO. • (5) Fixing solution (0.25% glutaraldehyde, 3% paraformaldehyde and 0.25% Triton-X 100) (all from Sigma Aldrich Ltd, Poole, UK). • (6) Blocking solution (5% dried milk (Marvel) in PBS) prepared daily. • (7) Anti HSP70 monoclonal antibody (SPA 810, Bioquote, York, UK). • (8) DELFIA® wash buffer, enhancement solution, assay buffer and Europium labelled anti-mouse IgG (1244–1330) (PerkinElmer Life Sciences, Milton Keynes, UK). • (9) BCA protein assay reagents (Perbio Science UK Ltd., Chester, UK). Method
Incubate at 37° for 30 min. • (6) Wash plates twice in PBS using an automated washer (Wellwash 5000 ten plate stacker-washer or Wellwash Ascent single plate washer, Thermo Labsystems, Basingstoke, UK). • (7) Block the plates by addition of blocking solution (100 μl) and incubate for 30 min. • (8) Add 100 μl primary antibody diluted to 0.95 μg/ml in PBS to each well and incubate plate for 1.5 h. Wash plates once with DELFIA® wash solution. • (9) Add 100 μl Europium labelled anti-mouse IgG diluted in DELFIA® assay buffer to 75 ng/ml and incubate for 1 hour. Wash plates once with DELFIA® wash solution as before. • (10) Add 100 μl DELFIA® enhancement solution to each well. • (11) Measure the fluorescence (615 nm) in Victor 2 1420 multilabel counter (Perkin Elmer Life Sciences, Milton Keynes, UK) using time-resolved measurement mode. • (12) Wash plates once with PBS and measure protein concentration by the addition of 200 μl BCA reagent to each well, shake for 1–2 min and incubate for 30 mins at 37° C. Read absorption at 570 nm. • (13) Express ELISA results by normalising to protein in the well (Eu counts (cpm) divided by OD@ 570 nm). Compare the effect of HSP90 inhibitors on HSP70 expression with DMSO treated controls. Comments • (1) Cells plated into 96 well plates are incubated in a plastic box to reduce evaporation from the outside wells. […]

[5] = test system: HCT116 cells; assay: Cellular protein by BCA assay after compound exposure (ELISA plates); type: cell-based, human; details: HCT116, 1 μM compound
Procedure: Incubate at 37° for 30 min. • (6) Wash plates twice in PBS using an automated washer (Wellwash 5000 ten plate stacker-washer or Wellwash Ascent single plate washer, Thermo Labsystems, Basingstoke, UK). • (7) Block the plates by addition of blocking solution (100 μl) and incubate for 30 min. • (8) Add 100 μl primary antibody diluted to 0.95 μg/ml in PBS to each well and incubate plate for 1.5 h. Wash plates once with DELFIA® wash solution. • (9) Add 100 μl Europium labelled anti-mouse IgG diluted in DELFIA® assay buffer to 75 ng/ml and incubate for 1 hour. Wash plates once with DELFIA® wash solution as before. • (10) Add 100 μl DELFIA® enhancement solution to each well. • (11) Measure the fluorescence (615 nm) in Victor 2 1420 multilabel counter (Perkin Elmer Life Sciences, Milton Keynes, UK) using time-resolved measurement mode. • (12) Wash plates once with PBS and measure protein concentration by the addition of 200 μl BCA reagent to each well, shake for 1–2 min and incubate for 30 mins at 37° C. Read absorption at 570 nm. • (13) Express ELISA results by normalising to protein in the well (Eu counts (cpm) divided by OD@ 570 nm). Compare the effect of HSP90 inhibitors on HSP70 expression with DMSO treated controls. Comments • (1) Cells plated into 96 well plates are incubated in a plastic box to reduce evaporation from the outside wells. In addition, ELISA incubation steps are carried out in a 37° C. laboratory incubator and in a moist environment e.g., plastic box lined with damp tissue paper. • (2) All additions to the microtitre plate can be achieved using a multichannel pipette or for larger numbers of plates an automated dispenser such as a Multidrop (Thermo Labsytems, Basingstoke, UK). • (3) For convenience, if the effects of compounds are being studied at several time points the ELISA can be carried out in batches, plates being stored (in a container) at 4° C. following the fixation step. In this case the plates are washed only once following fixation and again immediately before the first ELISA step (step 6 above). In addition all the plates can be stored for subsequent protein estimation. • (4) Reproducibility of both the measured Europium counts and the protein measurements was between 10–15% (CV). • (5) DELFIA® reagents (see, e.g., Hemmila and Webb, 1997) have been routinely used in cell-based ELISAs. This endpoint provides high sensitivity and the time-resolved measurements reduce interference from non-specific fluorescence. However, it is also possible to use a horse radish peroxidase second antibody conjugate and either a calorimetric (e.g., tetramethylbenzidine) or chemiluminescent reagent (e.g., ECL reagent (Amersham Pharmacia Biotech, Little Chalfont, Bucks, UK) for endpoint measurement. • (6) It is recommended that a blank consisting of second-antibody only (i.e., no first antibody) together with an appropriate first antibody control (e.g., isotype matched IgG) are included in assays during the process of optimising reagent concentrations. Growth Inhibition Assay
The effect of various compounds of the present invention on the expression of the molecular marker HSP70 was determined using the cell-based ELISA and a specific monoclonal antibody to HSP70 in HCT116 cells, as described above. Cellular protein following compound exposure was determined using BCA assay as described in the method.

[6] = activity class, read-out: Hsp90 IC50

T1 sequence (P02829 whole entry, looked up): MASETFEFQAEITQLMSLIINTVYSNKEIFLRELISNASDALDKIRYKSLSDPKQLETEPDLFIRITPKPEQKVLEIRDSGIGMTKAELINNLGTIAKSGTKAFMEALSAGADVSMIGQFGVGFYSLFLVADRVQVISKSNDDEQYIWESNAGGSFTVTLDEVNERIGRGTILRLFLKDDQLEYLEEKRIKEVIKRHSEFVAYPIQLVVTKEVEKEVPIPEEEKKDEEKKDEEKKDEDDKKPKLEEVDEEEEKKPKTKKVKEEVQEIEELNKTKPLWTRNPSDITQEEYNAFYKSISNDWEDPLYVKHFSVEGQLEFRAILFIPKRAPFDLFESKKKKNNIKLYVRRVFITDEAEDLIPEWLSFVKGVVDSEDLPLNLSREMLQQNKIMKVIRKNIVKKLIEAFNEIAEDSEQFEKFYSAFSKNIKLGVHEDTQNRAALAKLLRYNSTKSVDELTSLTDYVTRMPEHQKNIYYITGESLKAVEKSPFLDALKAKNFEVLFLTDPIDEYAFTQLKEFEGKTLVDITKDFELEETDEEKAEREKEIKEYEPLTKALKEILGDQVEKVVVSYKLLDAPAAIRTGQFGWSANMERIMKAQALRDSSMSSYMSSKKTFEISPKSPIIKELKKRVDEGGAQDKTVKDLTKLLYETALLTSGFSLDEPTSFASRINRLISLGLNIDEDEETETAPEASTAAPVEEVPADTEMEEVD

IC50 [1, 6]: > 10 µM
SMILES: CCOc1cc(O)c(-c2n[nH]cc2-c2nc(C)cs2)cc1CC [Example 130]

SMILES: COC1=C2C[C@@H](C)C[C@H](OC)[C@H](O)[C@@H](C)/C=C(\C)[C@H](OC(N)=O)[C@@H](OC)/C=C\C=C(/C)C(=O)NC(=CC1=O)C2=O [Geldanamycin, geldanamycin, reference compound]
IC50 [2]: 0.07 µM
IC50 [3]: 0.05 µM
% increase in HSP70 (Normalised Europium Counts compared to DMSO controls) ([4]; (48 h)): 270%
% increase in HSP70 (Normalised Europium Counts compared to DMSO controls) ([4]; (time not given)): 169%
Cellular Protein (% DMSO controls) ([5]; (48 h)): 46.3%
Cellular Protein (% DMSO controls) ([5]; (time not given)): 75.3%

IC50 [1, 6]: > 10 µM
SMILES: Cc1[nH]nc(-c2ccc(O)cc2O)c1-c1cnn(-c2ccccc2)c1 [Example 137]

IC50 [1, 6]: > 10 µM
SMILES: CCc1cc(-c2n[nH]cc2-c2ccccc2)c(O)cc1OC [Example 128]

IC50 ([1]; ATPase IC50, activity range, ATPase assay): < 50 µM
SMILES: COc1ccc(-c2c(-c3cc(Cl)c(O)cc3O)n[nH]c2C(=O)O)cc1 [Example 167, 5-(5-Chloro-2,4-dihydroxy-phenyl)-4-(4-methoxy-phenyl)-2H-pyrazole-3-carboxylic acid]

IC50 [1, 6]: > 10 µM
SMILES: Oc1ccc(-c2n[nH]c(C(F)(F)F)c2-c2ccc3c(c2)OCCO3)c(O)c1 [Example 142]

IC50 [1, 6]: 10 to 100 µM
SMILES: CCc1cc(-c2n[nH]c(C(F)(F)F)c2-c2ccccc2)c(O)cc1O [Example 103]

IC50 ([1]; activity range, ATPase assay, read-out: ATPase IC50): < 50 µM
SMILES: COc1ccc(-c2c(-c3cc(Cl)c(O)cc3O)n[nH]c2C(=O)NCc2ccccc2)cc1 [Example 171, 5-(5-Chloro-2,4-dihydroxy-phenyl)-4-(4-methoxy-phenyl)-2H-pyrazole-3-carboxylic acid benzylamide]

IC50 [1, 6]: > 10 µM
SMILES: CCCc1cc(-c2n[nH]cc2-c2ccc3c(c2)OCO3)c(O)cc1O [Example 140]

IC50 [1, 6]: < 10 µM
SMILES: Cc1[nH]nc(-c2cc(Cl)c(O)cc2O)c1-c1ccc(Br)cc1 [Example 58]
